Laboratory results published in ChEMBL document CHEMBL1201862, “PubChem BioAssay data set” (2004).
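In this assay, cells in 96-well plates receive the compound at five concentrations for 48 hours. Endpoints are linearly interpolated between the surrounding concentrations. GI50 marks 50% less growth.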 Activity calls are given as the source filed them. Cut-off read from the data, not from the text of the source: active = GI50 up to about 1.1 µM and inactive = higher.

Columns and labels:
Experiment in all cases: NCI tumour cell line growth inhibition, 48 h
HOP-92 = system: HOP-92
UACC-62 = system: UACC-62
SW-620 = system: SW-620
UACC-257 = system: UACC-257
KM12 = system: KM12
OVCAR-5 = system: OVCAR-5
MCF7 = system: MCF7
SNB-75 = system: SNB-75
Hs-578T = system: Hs-578T
A549 = system: A549
LOX IMVI = system: LOX IMVI
IGROV-1 = system: IGROV-1
NCI-H522 = system: NCI-H522
T47D = system: T47D
HCT-15 = system: HCT-15
SNB-19 = system: SNB-19
HCT-116 = system: HCT-116
A498 = system: A498
NCI-H226 = system: NCI-H226
NCI/ADR-RES = system: NCI/ADR-RES
HL-60 = system: HL-60
SR = system: SR
MDA-N = system: MDA-N
EKVX = system: EKVX
SK-OV-3 = system: SK-OV-3
SK-MEL-5 = system: SK-MEL-5
TK-10 = system: TK-10
CAKI-1 = system: CAKI-1
SK-MEL-2 = system: SK-MEL-2
SF-268 = system: SF-268
SF-295 = system: SF-295
NCI-H23 = system: NCI-H23
K562 = system: K562
DU-145 = system: DU-145
M14 = system: M14
MOLT-4 = system: MOLT-4
UO-31 = system: UO-31
SN12C = system: SN12C
MDA-MB-435 = system: MDA-MB-435
RPMI-8226 = system: RPMI-8226
Malme-3M = system: Malme-3M
786-0 = system: 786-0
HT-29 = system: HT-29
SF-539 = system: SF-539
OVCAR-3 = system: OVCAR-3
CCRF-CEM = system: CCRF-CEM
COLO 205 = system: COLO 205
HOP-62 = system: HOP-62
U-251 = system: U-251
MDA-MB-231 = system: MDA-MB-231
RXF 393 = system: RXF 393
OVCAR-4 = system: OVCAR-4
ACHN = system: ACHN
HCC 2998 = system: HCC 2998
OVCAR-8 = system: OVCAR-8
BT-549 = system: BT-549
SK-MEL-28 = system: SK-MEL-28
NCI-H460 = system: NCI-H460
PC-3 = system: PC-3

Measured: GI50

Cn1c(=O)c2c3ccccc3n(C)c2n(C)c1=O
inactive: HOP-92 > 100 µM | UACC-62 > 100 µM | SW-620 > 100 µM | UACC-257 > 100 µM | KM12 > 100 µM | OVCAR-5 > 100 µM | MCF7 > 100 µM | SNB-75 1.26 µM | Hs-578T > 100 µM | A549 > 100 µM | LOX IMVI > 100 µM | IGROV-1 > 100 µM | NCI-H522 > 100 µM | T47D > 100 µM | SNB-19 > 100 µM | HCT-116 > 100 µM | A498 > 100 µM | NCI-H226 > 100 µM | NCI/ADR-RES > 100 µM | HL-60 > 100 µM | SR > 100 µM | MDA-N > 100 µM | EKVX > 100 µM | SK-OV-3 22.3 µM | SK-MEL-5 > 100 µM | TK-10 > 100 µM | CAKI-1 > 100 µM | SK-MEL-2 > 100 µM | SF-268 > 100 µM | SF-295 > 100 µM | NCI-H23 > 100 µM | K562 > 100 µM | DU-145 > 100 µM | M14 > 100 µM | MOLT-4 > 100 µM | UO-31 > 100 µM | SN12C > 100 µM | MDA-MB-435 > 100 µM | RPMI-8226 > 100 µM | Malme-3M > 100 µM | 786-0 > 100 µM | HT-29 > 100 µM | SF-539 > 100 µM | OVCAR-3 > 100 µM | CCRF-CEM > 100 µM | COLO 205 > 100 µM | HOP-62 > 100 µM | U-251 > 100 µM | MDA-MB-231 > 100 µM | RXF 393 > 100 µM | OVCAR-4 > 100 µM | ACHN 97.9 µM | HCC 2998 > 100 µM | OVCAR-8 > 100 µM | BT-549 > 100 µM
> 100 µM: HCT-15

Cc1cc(C#N)c[n+](C)c1
> 100 µM: HCT-15
inactive: UACC-62 > 100 µM | SW-620 > 100 µM | UACC-257 > 100 µM | KM12 > 100 µM | OVCAR-5 > 100 µM | MCF7 > 100 µM | SNB-75 > 100 µM | Hs-578T > 100 µM | A549 > 100 µM | IGROV-1 > 100 µM | NCI-H522 > 100 µM | T47D > 100 µM | SK-MEL-28 > 100 µM | SNB-19 > 100 µM | HCT-116 > 100 µM | A498 > 100 µM | NCI-H226 > 100 µM | NCI/ADR-RES > 100 µM | HL-60 > 100 µM | SR > 100 µM | MDA-N > 100 µM | NCI-H460 > 100 µM | EKVX > 100 µM | SK-OV-3 > 100 µM | SK-MEL-5 > 100 µM | TK-10 > 100 µM | CAKI-1 > 100 µM | SK-MEL-2 > 100 µM | SF-268 > 100 µM | SF-295 > 100 µM | NCI-H23 > 100 µM | K562 > 100 µM | DU-145 > 100 µM | M14 > 100 µM | MOLT-4 > 100 µM | UO-31 > 100 µM | SN12C > 100 µM | Malme-3M > 100 µM | 786-0 > 100 µM | HT-29 > 100 µM | SF-539 > 100 µM | OVCAR-3 > 100 µM | CCRF-CEM > 100 µM | COLO 205 > 100 µM | HOP-62 > 100 µM | U-251 > 100 µM | MDA-MB-231 > 100 µM | PC-3 > 100 µM | RXF 393 > 100 µM | OVCAR-4 > 100 µM | ACHN > 100 µM | HCC 2998 > 100 µM | OVCAR-8 > 100 µM | BT-549 > 100 µM

CC(=O)Oc1ccc2cc(Oc3ccccc3)c(=O)oc2c1
53.3 µM: HCT-15
inactive: HOP-92 62.7 µM | SW-620 > 100 µM | UACC-257 > 100 µM | KM12 > 100 µM | OVCAR-5 > 100 µM | MCF7 > 100 µM | SNB-75 90.6 µM | Hs-578T > 100 µM | A549 48.2 µM | LOX IMVI 58.2 µM | IGROV-1 > 100 µM | NCI-H522 30.5 µM | T47D 36.1 µM | SK-MEL-28 > 100 µM | SNB-19 93.5 µM | HCT-116 > 100 µM | A498 67 µM | NCI-H226 > 100 µM | HL-60 > 100 µM | SR > 100 µM | MDA-N > 100 µM | NCI-H460 90.8 µM | EKVX > 100 µM | SK-MEL-5 50.4 µM | TK-10 64.6 µM | CAKI-1 > 100 µM | SF-268 > 100 µM | SF-295 > 100 µM | NCI-H23 > 100 µM | DU-145 > 100 µM | M14 > 100 µM | UO-31 61 µM | SN12C > 100 µM | RPMI-8226 > 100 µM | Malme-3M > 100 µM | 786-0 > 100 µM | HT-29 > 100 µM | SF-539 > 100 µM | OVCAR-3 46 µM | HOP-62 89.1 µM | U-251 69.7 µM | MDA-MB-231 > 100 µM | PC-3 > 100 µM | RXF 393 > 100 µM | OVCAR-4 76.9 µM | ACHN > 100 µM | HCC 2998 > 100 µM | OVCAR-8 80.9 µM | BT-549 39.9 µM

O=c1[nH]nc(Cc2ccccc2)n1/N=C/c1ccccc1O
inactive: HOP-92 53.7 µM | UACC-62 > 100 µM | SW-620 > 100 µM | UACC-257 > 100 µM | KM12 > 100 µM | OVCAR-5 > 100 µM | MCF7 > 100 µM | Hs-578T 51.9 µM | A549 > 100 µM | LOX IMVI > 100 µM | IGROV-1 83.8 µM | NCI-H522 > 100 µM | T47D > 100 µM | SK-MEL-28 > 100 µM | SNB-19 79.8 µM | HCT-116 > 100 µM | A498 > 100 µM | NCI-H226 > 100 µM | NCI/ADR-RES > 100 µM | HL-60 > 100 µM | MDA-N > 100 µM | NCI-H460 > 100 µM | EKVX > 100 µM | SK-OV-3 > 100 µM | SK-MEL-5 > 100 µM | TK-10 > 100 µM | CAKI-1 > 100 µM | SK-MEL-2 > 100 µM | SF-268 50.1 µM | SF-295 57.7 µM | NCI-H23 > 100 µM | K562 > 100 µM | DU-145 > 100 µM | M14 > 100 µM | MOLT-4 > 100 µM | UO-31 > 100 µM | SN12C > 100 µM | MDA-MB-435 > 100 µM | RPMI-8226 > 100 µM | Malme-3M > 100 µM | 786-0 41.5 µM | HT-29 > 100 µM | SF-539 > 100 µM | OVCAR-3 > 100 µM | CCRF-CEM > 100 µM | COLO 205 > 100 µM | HOP-62 25.9 µM | U-251 45 µM | MDA-MB-231 63.2 µM | RXF 393 23.4 µM | OVCAR-4 > 100 µM | ACHN > 100 µM | HCC 2998 > 100 µM | OVCAR-8 40.1 µM | BT-549 > 100 µM
> 100 µM: HCT-15
